Laboratory results: US20220144823A1, “PYRAZOLOPYRIDINE DERIVATIVES AS INHIBITORS OF PASK” (Galapagos NV, priority 2019, published 2022)

Key:
human PASK [1] = target: T1, human PASK (Homo sapiens, UniProt Q96RG2); test: 33P radioactive kinase assay; format: biochemical; conditions: 33P radioactive PASK kinase assay, 10 μM ATP, ZIPtide 1 μM
T1 construct: purchased ThermoFisher Scientific PR7013A
Summary of the method: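 Human PASK phosphorylation of ZIPtide peptide was measured by incorporation from [^33P]-ATP plus unlabelled ATP, with a 10-point, 1/5 dilution series from 0.2 or 2 mM DMSO stocks and 1% DMSO final. Reactions were stopped with phosphoric acid, filter-harvested, washed and scintillation-counted. Percentage inhibition gave dose–response curves and averaged IC50s.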

human PASK [2] = target: T1, human PASK; test: ADP-Glo kinase assay; format: biochemical; conditions: ADPGlo PASK kinase assay, 25 μM ATP, ZIPtide 25 μM
Summary of the method: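 Human recombinant PASK phosphorylating ZIPtide peptide with ATP, 120 min at RT; compounds in 10-point 1/5 dilution series, 1% DMSO final. ADP formed measured by ADP-Glo luminescence after ATP depletion; percent inhibition fitted to dose-response curves for averaged IC50.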

T1 sequence (Q96RG2 whole entry): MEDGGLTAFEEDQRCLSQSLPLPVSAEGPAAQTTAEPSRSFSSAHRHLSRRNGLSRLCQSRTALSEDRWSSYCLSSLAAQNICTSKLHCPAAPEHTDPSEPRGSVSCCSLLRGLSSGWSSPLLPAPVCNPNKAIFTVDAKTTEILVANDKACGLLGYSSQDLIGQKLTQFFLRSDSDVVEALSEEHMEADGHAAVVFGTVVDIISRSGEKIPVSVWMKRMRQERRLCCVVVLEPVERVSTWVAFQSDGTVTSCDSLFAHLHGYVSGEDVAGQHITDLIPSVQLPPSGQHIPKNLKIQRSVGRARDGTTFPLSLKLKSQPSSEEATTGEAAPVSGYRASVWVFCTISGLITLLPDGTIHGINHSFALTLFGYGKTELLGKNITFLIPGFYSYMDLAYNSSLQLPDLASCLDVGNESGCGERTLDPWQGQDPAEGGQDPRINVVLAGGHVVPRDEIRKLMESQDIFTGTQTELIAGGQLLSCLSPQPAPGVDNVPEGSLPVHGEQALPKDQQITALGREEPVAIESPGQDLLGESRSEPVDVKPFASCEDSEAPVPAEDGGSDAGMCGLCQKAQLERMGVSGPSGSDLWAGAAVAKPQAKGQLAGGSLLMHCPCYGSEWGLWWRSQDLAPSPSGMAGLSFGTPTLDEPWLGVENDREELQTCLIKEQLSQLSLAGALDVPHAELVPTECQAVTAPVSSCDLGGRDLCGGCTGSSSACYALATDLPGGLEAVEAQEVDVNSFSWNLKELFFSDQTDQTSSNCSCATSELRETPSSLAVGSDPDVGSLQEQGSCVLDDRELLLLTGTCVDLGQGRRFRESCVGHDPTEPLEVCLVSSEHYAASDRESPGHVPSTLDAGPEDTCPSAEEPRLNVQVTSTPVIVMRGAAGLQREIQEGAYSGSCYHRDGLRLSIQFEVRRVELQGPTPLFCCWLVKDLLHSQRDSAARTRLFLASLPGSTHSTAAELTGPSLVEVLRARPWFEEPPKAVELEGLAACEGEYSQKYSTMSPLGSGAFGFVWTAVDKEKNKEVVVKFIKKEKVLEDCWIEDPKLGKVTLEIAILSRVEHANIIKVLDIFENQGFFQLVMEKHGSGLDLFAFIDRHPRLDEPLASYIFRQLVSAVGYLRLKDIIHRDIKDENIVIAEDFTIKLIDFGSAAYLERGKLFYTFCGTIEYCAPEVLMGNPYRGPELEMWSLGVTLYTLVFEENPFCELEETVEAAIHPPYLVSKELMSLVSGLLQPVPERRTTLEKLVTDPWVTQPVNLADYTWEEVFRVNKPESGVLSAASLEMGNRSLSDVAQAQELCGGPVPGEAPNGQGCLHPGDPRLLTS

IC50 (human PASK [1]): 0.01 to 10 nM
IC50 (human PASK [2]): 0.01 to 10 nM
SMILES: Cc1nn(C(C)C)c(C)c1-c1cnn2ccc(-c3cc(C(=O)O)co3)cc12 [Cpd 18, 5-[3-(1-isopropyl-3,5-dimethyl-pyrazol-4-yl)pyrazolo[1,5-a]pyridin-5-yl]furan-3-carboxylic acid]
